Reference: publication PMC10258805, “Nonpeptidic Oxazole-Based Prolyl Oligopeptidase Ligands with Disease-Modifying Effects on α-Synuclein Mouse Models of Parkinson’s Disease” (Journal of Medicinal Chemistry, 2023)
Entries after “also recorded” stand apart in the source; their conditions may differ.

Assays:
[1] = test system: pPP2Ac and PP2Ac in HEK-293 cells; assay: PP2A marker assay (Western blot); format: cell-based, human; conditions: HEK-293, 10 μM
human FAP = biological target: T1, human FAP (Homo sapiens, UniProt Q12884); assay: Close-relative enzyme specificity assay, FAP; format: biochemical; conditions: 1 or 10 μM
T1 construct: the human secretion signal was replaced with the HoneyBee melittin secretion signal; HoneyBee melittin secretion signal (N); His tag from the C-terminal BaculoDirect vector (inferred from Ni-chelating purification; the vector also adds V5, own knowledge) (C); made in house; host or cells: Sf9 insect cells
T1 sequence (Q12884 26-760 limits assumed): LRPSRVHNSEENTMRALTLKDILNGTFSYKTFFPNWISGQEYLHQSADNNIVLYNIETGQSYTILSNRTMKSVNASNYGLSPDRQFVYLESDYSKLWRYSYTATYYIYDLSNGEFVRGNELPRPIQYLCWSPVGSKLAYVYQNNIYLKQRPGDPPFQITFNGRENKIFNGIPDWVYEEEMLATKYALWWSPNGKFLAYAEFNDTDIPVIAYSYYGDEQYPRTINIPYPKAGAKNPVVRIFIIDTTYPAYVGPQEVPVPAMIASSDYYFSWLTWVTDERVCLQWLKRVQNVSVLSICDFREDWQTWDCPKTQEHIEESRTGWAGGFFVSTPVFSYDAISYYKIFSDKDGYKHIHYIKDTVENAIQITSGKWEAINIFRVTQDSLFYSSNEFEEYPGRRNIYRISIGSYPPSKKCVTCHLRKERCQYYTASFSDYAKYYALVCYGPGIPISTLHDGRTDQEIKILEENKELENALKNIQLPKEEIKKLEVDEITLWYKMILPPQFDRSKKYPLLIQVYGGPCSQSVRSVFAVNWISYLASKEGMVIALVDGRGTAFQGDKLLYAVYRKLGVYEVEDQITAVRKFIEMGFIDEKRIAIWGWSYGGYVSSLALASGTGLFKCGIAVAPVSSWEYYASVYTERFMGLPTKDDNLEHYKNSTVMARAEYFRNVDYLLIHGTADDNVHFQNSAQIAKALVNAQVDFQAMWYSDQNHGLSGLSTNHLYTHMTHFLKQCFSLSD
Text: FAP: A gateway-entry clone for human FAP was purchased from Dharmacon (Accession number DQ891423), and the human secretion signal was replaced with the HoneyBee melittin secretion signal. For transfection and expression of FAP in Sf9 insect cells, the C-terminal BaculoDirect kit from LifeTechnologies was used. The enzyme was purified from the supernatant of the insect cells using immobilized Ni-chelating chromatography (GE Healthcare, Diegem, Belgium), followed by anion-exchange chromatography using a 1 mL HiTrap Q and size exclusion chromatography using the Superdex 200 column (GE Healthcare, Diegem, Belgium).
Measurements were done on the Infinite 200 as above.

DPP4 = biological target: T2, DPP4 (Homo sapiens, UniProt P27487); assay: Close-relative enzyme specificity assay, DPP4; format: biochemical; conditions: 1 or 10 μM
T2 construct: DPPIV was purified from human seminal plasma; from tissue; host or cells: human seminal plasma
Protocol: DPP4: DPPIV was purified from human seminal plasma, as described previously.
DPP4 and DPP9: Ala-Pro-para-nitroanilide (pNA) was used as the substrate at the respective concentrations of 25 μM (DPP4) or 150 μM (DPP9) at pH 7.4 (0.05 M HEPES–NaOH buffer with 0.1% Tween-20, 0.1 mg/mL BSA, and 150 mM NaCl). […] Measurements were done on the Infinite 200 as above.

PREP in HEK-293 cells = biological target: T3, PREP in HEK-293 cells (Homo sapiens, UniProt P48147); assay: Cellular thermal shift assay (CETSA); format: cell-based; conditions: 10 μM, 1 h
T3 construct: endogenous in cells; host or cells: HEK-293 (ATCC)
T3 sequence (P48147 1-710): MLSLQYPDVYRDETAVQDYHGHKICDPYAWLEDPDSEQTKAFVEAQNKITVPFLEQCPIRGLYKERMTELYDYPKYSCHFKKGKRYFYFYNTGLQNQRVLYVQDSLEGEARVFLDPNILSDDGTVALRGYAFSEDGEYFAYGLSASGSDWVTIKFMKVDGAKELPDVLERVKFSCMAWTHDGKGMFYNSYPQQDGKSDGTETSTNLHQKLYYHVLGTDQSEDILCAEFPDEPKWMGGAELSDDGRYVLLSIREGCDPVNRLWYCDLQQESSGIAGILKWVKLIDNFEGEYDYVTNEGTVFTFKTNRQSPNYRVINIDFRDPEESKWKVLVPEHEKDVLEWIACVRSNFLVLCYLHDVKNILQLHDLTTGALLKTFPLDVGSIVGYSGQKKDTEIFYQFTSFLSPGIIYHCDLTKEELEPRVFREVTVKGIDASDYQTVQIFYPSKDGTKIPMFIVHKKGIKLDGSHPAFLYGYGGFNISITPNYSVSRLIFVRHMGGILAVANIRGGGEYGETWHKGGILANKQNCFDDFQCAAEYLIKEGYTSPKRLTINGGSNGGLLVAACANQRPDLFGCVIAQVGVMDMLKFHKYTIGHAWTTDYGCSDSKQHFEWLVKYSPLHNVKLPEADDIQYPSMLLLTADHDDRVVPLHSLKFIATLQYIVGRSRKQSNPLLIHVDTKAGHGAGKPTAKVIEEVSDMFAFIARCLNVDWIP
Protocol: CETSA was performed as previously described.[41] HEK-293 cells were seeded to T25 flasks with a density of 1 × 10^6 cells. […] After the exposure, the cells were collected in PBS and aliquoted into 7 PCR tubes (100,000 cells/tube). The cells were prewarmed at 37 °C for 3 min, then heated to 37, 47, 50, 53, 56, 63, or 67 °C for 3 min and subsequently cooled at 25 °C for 3 min using a PCR Mastercycler (T100 Thermal Cycler, Bio-Rad). After heating, the cells were disrupted with two freeze–thaw cycles by submerging the tubes into liquid nitrogen and subsequently thawed by incubation at 25 °C for 3 min. The aggregated proteins were removed by centrifugation (at 20,000g for 20 min at 4 °C), and the soluble fractions were diluted with Laemmli buffer (Bio-Rad, Hercules, CA) and analyzed with Western blot as described above. The nondenaturated protein fractions (%) were calculated by comparing the intensities of temperature-treated cell samples to the corresponding cell samples from 37 °C.

LC3BII in HEK-293 cells = assay: Autophagy marker LC3BII assay (Western blot); format: cell-based, human; conditions: HEK-293, 10 μM
[2] = test system: oligomeric αSyn in A30P*A53T transgenic mice; assay: Oligomeric αSyn in A30P*A53T transgenic mice; format: in vivo, mouse; conditions: TG mice, 10 mg/kg i.p. every 12 h for 7 days, vs vehicle

T2 sequence (P27487 whole entry): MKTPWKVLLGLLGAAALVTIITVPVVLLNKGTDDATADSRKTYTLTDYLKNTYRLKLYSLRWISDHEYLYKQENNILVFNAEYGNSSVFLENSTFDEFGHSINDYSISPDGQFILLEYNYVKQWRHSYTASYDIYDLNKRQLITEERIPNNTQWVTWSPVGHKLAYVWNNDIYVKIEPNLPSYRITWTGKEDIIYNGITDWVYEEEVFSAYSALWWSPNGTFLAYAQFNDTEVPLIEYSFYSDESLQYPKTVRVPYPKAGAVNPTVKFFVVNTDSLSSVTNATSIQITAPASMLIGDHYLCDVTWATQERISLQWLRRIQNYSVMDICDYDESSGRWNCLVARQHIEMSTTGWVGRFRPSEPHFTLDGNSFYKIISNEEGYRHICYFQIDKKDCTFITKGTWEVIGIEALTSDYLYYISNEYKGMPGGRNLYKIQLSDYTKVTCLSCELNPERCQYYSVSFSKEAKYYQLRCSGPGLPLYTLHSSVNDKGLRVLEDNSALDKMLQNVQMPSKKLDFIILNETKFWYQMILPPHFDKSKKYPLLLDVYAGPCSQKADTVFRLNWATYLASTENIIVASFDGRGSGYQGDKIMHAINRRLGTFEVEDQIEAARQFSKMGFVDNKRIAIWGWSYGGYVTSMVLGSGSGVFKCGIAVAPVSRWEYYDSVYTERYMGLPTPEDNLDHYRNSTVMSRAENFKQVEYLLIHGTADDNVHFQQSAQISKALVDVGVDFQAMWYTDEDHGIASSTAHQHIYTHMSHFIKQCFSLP

SMILES: Cc1nc(CCCc2ccccc2)oc1N1CCC[C@H]1C#N [HUP-55, (S)-1-(4-Methyl-2-(3-phenylpropyl)oxazol-5-yl)pyrrolidine-2-carbonitrile]
- pPP2Ac levels (in words) ([1]; 4 h): significant decrease in pPP2Ac levels
- total PP2Ac levels (in words) ([1]; 4 h): elevated total PP2Ac levels
- PP2Ac levels (in words) ([1]; 24 h): significantly elevated
- inhibition of FAP (human FAP): no inhibition; also recorded: does not inhibit
- inhibition of DPP4 (DPP4): no inhibition; also recorded: does not inhibit
- fitted mean aggregation temperature (PREP in HEK-293 cells): 53.19 °C
- increase in the fitted mean aggregation temperature (PREP in HEK-293 cells; vs DMSO): 3.01 °C
- LC3BII levels (in words) (LC3BII in HEK-293 cells; 4 h): significant increase in LC3BII levels
- LC3BII levels (in words) (LC3BII in HEK-293 cells; 24 h): significantly elevated LC3BII levels
- decrease of oligomeric αSyn in the SNpc ([2]; nonsignificant): 38%
- decrease of oligomeric αSyn in the STR ([2]; not statistically significant): 47%
